This test addresses T1, human PDE2A1 (Homo sapiens, UniProt O00408).
T1 construct: GST; purchased BPS Bioscience (San Diego, Calif.) 60020; host or cells: insect cells
Put plainly: IMAP FP PDE assay, human PDE2A1. The class given is biochemical. Conditions: Lab B; read-out: Human PDE2 Ki (nM) Lab B. In short, it runs like this: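 GST-tagged human PDE2A1 from insect cells; substrate 50 nM FAM-cAMP containing 1000 nM cGMP in Tris pH 7.2/MgCl2/DTT buffer, enzyme giving 20% conversion. 60 min at room temperature, IMAP binding reagent, fluorescence polarization read. Apparent Ki from FP readings using apparent KM 10,000 nM; ten-point 3-fold titrations.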

In general, Ki refers to a dissociation constant, usually derived from enzyme kinetics or from competition with a known ligand.

T1 sequence (O00408 1-920 isoform O00408-2): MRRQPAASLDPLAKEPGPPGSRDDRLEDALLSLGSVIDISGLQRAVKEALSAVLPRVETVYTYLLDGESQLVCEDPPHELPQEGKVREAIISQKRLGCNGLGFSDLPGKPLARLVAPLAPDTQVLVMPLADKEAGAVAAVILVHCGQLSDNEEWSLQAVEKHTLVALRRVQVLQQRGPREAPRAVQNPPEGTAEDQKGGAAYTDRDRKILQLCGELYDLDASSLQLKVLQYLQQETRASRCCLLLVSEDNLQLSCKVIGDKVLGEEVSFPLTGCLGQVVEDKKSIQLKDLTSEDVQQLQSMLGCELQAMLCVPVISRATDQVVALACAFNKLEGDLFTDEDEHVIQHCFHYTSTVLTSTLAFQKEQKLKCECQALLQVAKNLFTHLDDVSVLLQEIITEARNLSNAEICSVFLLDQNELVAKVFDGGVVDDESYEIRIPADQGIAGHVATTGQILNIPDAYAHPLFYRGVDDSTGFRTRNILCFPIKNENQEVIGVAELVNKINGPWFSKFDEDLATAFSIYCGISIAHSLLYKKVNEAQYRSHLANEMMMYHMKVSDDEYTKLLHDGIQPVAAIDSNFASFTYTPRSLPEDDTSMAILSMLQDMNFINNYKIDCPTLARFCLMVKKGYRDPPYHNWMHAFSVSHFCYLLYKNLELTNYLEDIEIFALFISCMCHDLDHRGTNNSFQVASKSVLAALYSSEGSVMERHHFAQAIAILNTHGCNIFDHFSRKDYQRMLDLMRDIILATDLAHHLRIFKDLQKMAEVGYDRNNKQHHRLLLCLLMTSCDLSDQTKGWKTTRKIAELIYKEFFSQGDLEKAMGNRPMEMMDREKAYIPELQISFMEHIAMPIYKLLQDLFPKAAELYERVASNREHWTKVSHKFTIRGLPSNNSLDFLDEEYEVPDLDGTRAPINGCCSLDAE

Regarding `Cc1nc2c(c(CO)nn2C(C)c2ccc(Cl)s2)c(=O)[nH]1` (single isomer, unassigned) [Example 153, (R)- or (S)-1-(1-(5-Chlorothiophen-2-yl)ethyl)-3-(hydroxymethyl)-6-methyl-1H-pyrazolo[3,4-d]pyrimidin-4(5H)-one], the Ki was more than 2960 nM.
The value for `CCCc1nc2c(c(CO)nn2C(C)c2ccc(C(F)(F)F)cc2)c(=O)[nH]1` (single isomer, unassigned) [Example 304, (S)- or (R)-3-(Hydroxymethyl)-6-propyl-1-(1-(4-(trifluoromethyl)phenyl)ethyl)-1,5-dihydro-4H-pyrazolo[3,4-d]pyrimidin-4-one] was 263 nM.
Consider `CC(c1ccc(C(F)(F)F)cc1)n1nc(CO)c2c(=O)[nH]c(CC3CCCC3)nc21` (single isomer, unassigned) [Example 307, (R)- or (S)-6-(Cyclopentyl-methyl)-3-(hydroxymethyl)-1-(1-(4-(trifluoromethyl)-phenyl)ethyl)-1,5-dihydro-4H-pyrazolo[3,4-d]pyrimidin-4-one], for which the Ki amounted to 13 nM.
The result for `CC(c1ccc(C(F)(F)F)cc1)n1nc(CO)c2c(=O)[nH]c(C3CCCO3)nc21` (single isomer, unassigned) [Example 313, (R,S)- or (S,R)- or (R,R)- or (S,S)-3-(Hydroxymethyl)-6-(tetrahydrofuran-2-yl)-1-(1-(4-(trifluoromethyl)-phenyl)ethyl)-1,5-dihydro-4H-pyrazolo[3,4-d]pyrimidin-4-one] reads 22 nM.
The result for `CC(=O)c1ccc(C(C)n2nc(CO)c3c(=O)[nH]c(C)nc32)cc1` (single isomer, unassigned) [Example 290] reads more than 2960 nM; that for `CC(c1ccc(C(F)(F)F)cc1)n1nc(C#N)c2c(=O)[nH]c(CC3CC3)nc21` (single isomer, unassigned) [Example 347], 1030 nM.
As for `CC(=O)Nc1nn(C(C)c2ccc(C(F)(F)F)cc2)c2nc(C)[nH]c(=O)c12` (single isomer, unassigned) [Example 260], the Ki came out at 54 nM.
The value for `CNC(=O)c1nn(C(C)c2ccc(C(F)(F)F)cc2)c2nc(C)[nH]c(=O)c12` (single isomer, unassigned) [Example 264] was 233 nM.
As to `Cc1nc2c(c(C(F)F)nn2C(C)c2ccc(C(F)(F)F)c(F)c2)c(=O)[nH]1` (single isomer, unassigned) [Example 167, (R)- or (S)-3-(Difluoromethyl)-1-(1-(3-fluoro-4-(trifluoromethyl)phenyl)ethyl)-6-methyl-1H-pyrazolo[3,4-d]pyrimidin-4(5H)-one], the Ki was 256 nM.
The result for `Cc1nc2c(c(CO)nn2C(C)c2ccc(C3(C(F)(F)F)CC3)cc2)c(=O)[nH]1` (single isomer, unassigned) [Example 80] reads 624 nM; that for `Cc1nc2c(c(CO)nn2C(C)c2ccc(C(F)(F)F)cn2)c(=O)[nH]1` (single isomer, unassigned) [Example 152, (S)- or (R)-3-(Hydroxymethyl)-6-methyl-1-(1-(5-(trifluoromethyl)pyridin-2-yl)ethyl)-1H-pyrazolo[3,4-d]pyrimidin-4(5H)-one], 1180 nM.
The value for `COc1cccc(Cc2nc3c(c(C#N)nn3C(C)c3ccc(C(F)(F)F)cc3)c(=O)[nH]2)c1` (single isomer, unassigned) [Example 349] was 373 nM; that for `Cc1nc2c(c(CF)nn2C(C)c2ccc(CC(F)(F)F)cc2)c(=O)[nH]1` (single isomer, unassigned) [Example 210, (R)- or (S)-3-(Fluoromethyl)-6-methyl-1-(1-(4-(2,2,2-trifluoroethyl)phenyl)ethyl)-1H-pyrazolo[3,4-d]pyrimidin-4(5H)-one] was 75 nM; that for `Cc1nc2c(c(CC(F)(F)F)nn2C(C)c2ccc(C(F)(F)F)cc2)c(=O)[nH]1` (single isomer, unassigned) [Example 65, (S)- or (R)-6-Methyl-3-(2,2,2-trifluoroethyl)-1-(1-(4-(trifluoromethyl)phenyl)ethyl)-1H-pyrazolo[3,4-d]pyrimidin-4(5H)-one] was 5 nM.
Consider `Cc1nc2c(c(CF)nn2C(c2ccc(OC(F)(F)F)cc2)C2CC2)c(=O)[nH]1` (single isomer, unassigned) [Example 225, (S)- or (R)-1-(Cyclopropyl(4-(trifluoromethoxy)phenyl)methyl)-3-(fluoromethyl)-6-methyl-1,5-dihydro-4H-pyrazolo[3,4-d]pyrimidin-4-one], for which the Ki was found to be 4.6 nM.
The result for `COc1cccc(Cc2nc3c(c(C#N)nn3C(C)c3ccc(C(F)(F)F)cc3)c(=O)[nH]2)c1` (single isomer, unassigned) [Example 348] reads 4.7 nM; that for `Cc1nc2c(c(CO)nn2C(C)c2ccc(OC(F)F)cc2)c(=O)[nH]1` (single isomer, unassigned) [Example 20, (R)- or (S)-1-(1-(4-(Difluoromethoxy)phenyl)ethyl)-3-(hydroxymethyl)-6-methyl-1H-pyrazolo[3,4-d]pyrimidin-4(5H)-one], 305 nM; that for `Cc1nc2c(c(CO)nn2C(C)c2ccc(C(F)(F)F)cc2I)c(=O)[nH]1` (single isomer, unassigned) [Example 141, (S)- or (R)-3-(Hydroxymethyl)-1-(1-(2-iodo-4-(trifluoromethyl-)phenyl)ethyl)-6-methyl-1,5-dihydro-4H-pyrazolo[3,4-d]pyrimidin-4-one], 12 nM.
The value for `CC(c1ccc(C(F)(F)F)cc1)n1nc(C(F)F)c2c(=O)[nH]c(C3CC3)nc21` (single isomer, unassigned) [Example 191, (R)- or (S)-6-Cyclopropyl-3-(difluoromethyl)-1-(1-(4-(trifluoromethyl)phenyl)ethyl)-1,5-dihydro-4H-pyrazolo[3,4-d]pyrimidin-4-one] was 268 nM.
The result for `Cc1nc2c(c(CO)nn2C(C)c2c(F)cc(C(F)(F)F)cc2F)c(=O)[nH]1` (single isomer, unassigned) [Example 137] reads 121 nM; that for `Cc1nc2c(c(CF)nn2C(c2ccc(C(F)(F)F)c(F)c2)C2CC2)c(=O)[nH]1` (single isomer, unassigned) [Example 227, (S)- or (R)-1-(Cyclopropyl(3-fluoro-4-(trifluoromethyl)phenyl)methyl)-3-(fluoromethyl)-6-methyl-1,5-dihydro-4H-pyrazolo[3,4-d]pyrimidin-4-one], 32 nM; that for `CCc1nc2c(c(C(F)F)nn2C(C)c2ccc(C(F)(F)F)cc2)c(=O)[nH]1` (single isomer, unassigned) [Example 190, (S)- or (R)-3-(Difluoromethyl)-6-ethyl-1-(1-(4-(trifluoromethyl)-phenyl)ethyl)-1,5-dihydro-4H-pyrazolo[3,4-d]pyrimidin-4-one], 2.7 nM.
With `Cc1nc2c(c(CO)nn2C(C)c2cnn(CC(F)(F)F)c2)c(=O)[nH]1` (single isomer, unassigned) [Example 149, (R)- or (S)-3-(Hydroxymethyl)-6-methyl-1-(1-(1-(2,2,2-trifluoroethyl)-1H-pyrazol-4-yl)ethyl)-1H-pyrazolo[3,4-d]pyrimidin-4(5H)-one], the Ki was more than 2960 nM.
The result for `Cc1nc2c(c(C(F)(F)CO)nn2C(C)c2ccc(C(F)(F)F)cc2)c(=O)[nH]1` (single isomer, unassigned) [Example 254] reads 452 nM; that for `Cc1nc2c(c(C(=O)NCC(F)(F)F)nn2C(C)c2ccc(C(F)(F)F)cc2)c(=O)[nH]1` (single isomer, unassigned) [Example 269, (S)- or (R)-6-Methyl-4-oxo-N-(2,2,2-trifluoroethyl)-1-(1-(4-(trifluoromethyl)phenyl)ethyl)-4,5-dihydro-1H-pyrazolo[3,4-d]pyrimidine-3-carboxamide], approximately 1430 nM.
The value for `Cc1nc2c(c(-c3cn[nH]c3)nn2C(C)c2ccc(C(F)(F)F)cc2)c(=O)[nH]1` (single isomer, unassigned) [Example 237] was 2.5 nM.
The value for `CCC(c1ccc(OC(F)(F)F)cc1)n1nc(CO)c2c(=O)[nH]c(C)nc21` (single isomer, unassigned) [Example 135, (S)- or (R)-3-(Hydroxymethyl)-6-methyl-1-(1-(4-(trifluoro-methoxy)phenyl)propyl)-1H-pyrazolo[3,4-d]pyrimidin-4(5H)-one] was 1 nM; that for `CC(c1ccc(C(F)(F)F)cc1)n1nc(CO)c2c(=O)[nH]c(CC3CCCC3)nc21` (single isomer, unassigned) [Example 308, (S)- or (R)-6-(Cyclopentyl-methyl)-3-(hydroxymethyl)-1-(1-(4-(trifluoromethyl)phenyl)ethyl)-1,5-dihydro-4H-pyrazolo[3,4-d]pyrimidin-4-one] was 329 nM.
Consider `Cc1nc2c(c(CO)nn2C(C)c2ccc(C(F)F)cc2)c(=O)[nH]1` (single isomer, unassigned) [Example 110, (R)- or (S)-1-(1-(4-(Difluoromethyl)phenyl)ethyl)-3-(hydroxymethyl)-6-methyl-1H-pyrazolo[3,4-d]pyrimidin-4(5H)-one], for which the Ki came out at 1070 nM.
The result for `Cc1nc2c(c(CC(C)O)nn2C(C)c2ccc(C(F)(F)F)cc2)c(=O)[nH]1` (single isomer, unassigned) [Example 246] reads 72 nM; that for `Cc1nc2c(c(CO)nn2C(C)c2ccc(C(F)(F)F)cc2C)c(=O)[nH]1` (single isomer, unassigned) [Example 109, (S)- or (R)-3-(Hydroxymethyl)-6-methyl-1-(1-(2-methyl-4-(trifluoromethyl)phenyl)ethyl)-1H-pyrazolo[3,4-d]pyrimidin-4(5H)-one], 1.9 nM; that for `CC(c1ccc(C(F)(F)F)cc1)n1nc(C(F)F)c2c(=O)[nH]c(C3CC3)nc21` (single isomer, unassigned) [Example 192, (S)- or (R)-6-Cyclopropyl-3-(difluoromethyl)-1-(1-(4-(trifluoromethyl)phenyl)ethyl)-1,5-dihydro-4H-pyrazolo[3,4-d]pyrimidin-4-one], 3.4 nM.

The values are drawn from patent publication US10160762B2, “6-alkyl dihydropyrazolopyrimidinone compounds as PDE2 inhibitors” (Merck Sharp & Dohme Corp., priority 2015, dated 2018).
